The record followed here is paper PMC8041284, “Tunable Methacrylamides for Covalent Ligand Directed Release Chemistry” (Journal of the American Chemical Society, 2021).

Where a SMILES comes first, the peptide text is derived from it. Bridges are numbered along the chain shown (N, C = ends). [ ]: non-standard residue; d: D form. The star is where a group is joined. Ileψ(thiazoline)Cys = CC[C@H](C)[C@H](N)C1=N[C@H](C(=O)*)CS1; Dip = N[C@H](C(=O)O)C(c1ccccc1)c1ccccc1; dOrn = NCCC[C@@H](N)C(=O)O

Chain of BTK (Q06187 402-655 limits assumed): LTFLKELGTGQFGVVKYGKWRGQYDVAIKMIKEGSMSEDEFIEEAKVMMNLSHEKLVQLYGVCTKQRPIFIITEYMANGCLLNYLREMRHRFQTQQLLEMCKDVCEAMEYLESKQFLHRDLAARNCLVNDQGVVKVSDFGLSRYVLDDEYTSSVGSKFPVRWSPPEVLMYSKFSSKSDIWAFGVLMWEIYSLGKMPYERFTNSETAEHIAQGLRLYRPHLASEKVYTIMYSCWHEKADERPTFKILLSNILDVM

The first test addresses BTK (Homo sapiens, UniProt Q06187). The experiment in a line: biochemical. The conditions noted are these: read-out: BTK inhibition (%).
For the compound `C[C@]12C=CC(=O)C=C1CC[C@@H]1[C@@H]2CC[C@@]2(C)[C@H]1CC[C@]2(C)O` [PCM-0215063], the inhibition at 10 µM was -11.7%.

Staying with this test, now noted: read-out: BTK inhibition (%), 0.75 uM BTK, […] probe 3l, 15 min preincubation.
As for `Cc1cc(CN2CCN(c3c(Br)cnc4nc(-c5ccc(N6CCN(C)CC6)cc5)[nH]c34)CC2)no1` [PCM-0095479], the inhibition at 10 µM was found to be 4.3%.
Same read-out and setting: as for `CN(C)c1ccc2c(c1)Sc1cc(N(C)C)ccc1N2` [PCM-0215668], the figure is 72.6%; as for `CO[C@H]1O[C@@H]2O[C@@]3(C)CC[C@H]4[C@H](C)CC[C@@H]([C@H]1C)[C@@]24OO3` [PCM-0214640], 3.1%.
Still for that read-out and setting: with `O=Cc1ccc(O)c(O)c1` [PCM-0215162] the figure was 5.4%; with `O=c1cc(-c2ccc(O)c(O)c2)oc2cc(O)c([C@@H]3O[C@H](CO)[C@@H](O)[C@H](O)[C@H]3O)c(O)c12` [PCM-0216497], -4.6%.
The same measure, in the same setting: as for `CC[C@H](C)[C@H](N)C1=N[C@H](C(=O)N[C@@H](CC(C)C)C(=O)N[C@H](CCC(=O)O)C(=O)N[C@H](C(=O)N[C@H]2CCCCNC(=O)[C@H](CC(N)=O)NC(=O)[C@@H](CC(=O)O)NC(=O)[C@H](Cc3cnc[nH]3)NC(=O)[C@@H](Cc3ccccc3)NC(=O)[C@H]([C@@H](C)CC)NC(=O)[C@@H](CCCN)NC2=O)[C@@H](C)CC)CS1` [PCM-0215200] ({Ileψ(thiazoline)Cys}-L[dE]IK[dOrn]I[dF]H[dD]N; lactam 4-C), the figure is -27.2%; as for `CCCCCCCCC(=O)O` [PCM-0216031], -8.6%; as for `C[C@]12C=CC(=O)C=C1CC[C@H]1[C@@H]3C[C@@H](O)[C@](O)(C(=O)CO)[C@@]3(C)C[C@H](O)[C@@]12F` [PCM-0064944], 2.1%.
For the compound `CN1CCN(CCOc2cc(OC3CCOCC3)c3c(Nc4c(Cl)ccc5c4OCO5)ncnc3c2)CC1` [PCM-0094889], the inhibition at 10 µM was 59.3%.
Take `CN(C)C(=O)Nc1cccc(-c2ccc(N(C)C)cc2)c1` [PCM-0095740]: the inhibition at 10 µM was -3.1%.
The same measure, in the same setting: with `O=C(NC(Cc1cc(=O)[nH]c2ccccc12)C(=O)O)c1ccc(Cl)cc1` (stereo not shown) [PCM-0086359] the figure was 4.7%; with `Cc1c(C(=O)Nc2ccc(Oc3ccnc4[nH]cc(-c5ccccc5)c34)c(F)c2)c(=O)n(-c2ccc(F)cc2)n1C` [PCM-0215493], 95.9%; with `CC(=O)O[C@]1(C(C)=O)CC[C@H]2[C@@H]3CCC4=CC(=O)CCC4=C3[C@@H](c3ccc(N(C)C)cc3)C[C@@]21C` [PCM-0095563], 38.9%.
The same measure, in the same setting: with `CN1C2=C3N=c4ccccc4=C3CCN2C(=O)c2ccccc21` [PCM-0214954] the figure was 7%.
On to `CC(C)c1c(-c2ccccc2)nc2c(C#N)c[nH]n2c1=O` [PCM-0215735], for which the inhibition at 10 µM was found to be 24.7%.
On the same count and under the same terms, as for `O=C(O)c1ccc(O)c(O)c1` [PCM-0215076], the figure is 2.8%.
The same measure, in the same setting: as for `OC[C@H]1O[C@@H](O[C@H]2[C@H](O)[C@@H](O)C(O)O[C@@H]2CO)[C@H](O)[C@@H](O)[C@@H]1O` (stereo partly shown) [PCM-0215689], the figure is -3.4%; as for `Nc1nnc(-c2cccc(Cl)c2Cl)c(N)n1` [PCM-0065504], 16.3%; as for `NCCCC[C@H](NC(=O)[C@@H](NC(=O)[C@H](Cc1c[nH]c2ccccc12)NC(=O)[C@H](CCCCN)NC(=O)[C@H](CCCCN)NC(=O)[C@H](Cc1c[nH]c2ccccc12)NC(=O)[C@H](Cc1c[nH]c2ccccc12)NC(=O)[C@H](CCCCN)NC(=O)[C@@H](N)CCCCN)C(c1ccccc1)c1ccccc1)C(N)=O` [PCM-0215623] (H-KKWWKKW[Dip]K-NH2), -11.1%.
Still for that read-out and setting: as for `CC(C)C[C@H](NC(=O)[C@@H](NC(=O)c1cccc(-c2ccccc2)n1)[C@@H](C)O)B(O)O` [PCM-0214714], the figure is 6.2%; as for `N[C@@H](Cc1cc(I)c(Oc2cc(I)c(O)c(I)c2)c(I)c1)C(=O)O` [PCM-0085937], 19.5%.
For `COc1cc(O)c2c(=O)cc(-c3ccc(O)c(O)c3)oc2c1` [PCM-0216461], the inhibition at 10 µM was 61%.
On the same count and under the same terms, with `COc1ccc(-c2coc3cc(O)ccc3c2=O)cc1` [PCM-0087244] the figure was 0.8%; with `Cc1cn(CCN2CCN(c3ccccc3-c3cc(C#N)cc(C(=O)NCCCN4CCCC4)c3)CC2)c2ccccc12` [PCM-0215709], 27%; with `C[C@@H]1O[C@@H](O[C@H]2[C@H](Oc3c(-c4ccc(O)cc4)oc4cc(O)cc(O)c4c3=O)O[C@H](CO)[C@@H](O)[C@@H]2O)[C@H](O)[C@H](O)[C@H]1O` [PCM-0216179], -1.7%.
Still for that read-out and setting: with `CNCCCC12CCC(c3ccccc31)c1ccccc12` [PCM-0064754] the figure was 11.7%; with `O=C1C(=O)N(Cc2ccc(Cl)c(Cl)c2)c2ccccc21` [PCM-0095429], 9.3%; with `CC(C)=CCOc1ccc(/C=C/C(=O)c2ccc(OCC=C(C)C)cc2OCC(=O)O)cc1` [PCM-0216579], 16.2%.
Still for that read-out and setting: with `C[C@@H]1OC(O)[C@@H](O)[C@H](O)[C@@H]1O` (stereo partly shown) [PCM-0216337] the figure was -23.2%; with `CC(C)(O)CC[C@@H](O)[C@](C)(O)[C@H]1CC[C@@]2(O)C3=CC(=O)[C@@H]4C[C@@H](O)[C@@H](O)C[C@]4(C)[C@H]3CC[C@]12C` [PCM-0095305], 6.2%; with `CC(C)=CCC[C@](C)(O[C@@H]1O[C@H](CO)[C@@H](O)[C@H](O)[C@H]1O)[C@H]1CC[C@]2(C)[C@@H]1[C@H](O)C[C@@H]1[C@@]3(C)CC[C@H](O)C(C)(C)[C@@H]3[C@@H](O[C@@H]3O[C@H](CO)[C@@H](O)[C@H](O)[C@H]3O[C@@H]3O[C@@H](C)[C@H](O)[C@@H](O)[C@H]3O)C[C@]12C` [PCM-0214989], -8.6%.
For the compound `COc1cccc(OC)c1C(=O)OCc1cc(O)ccc1O[C@@H]1O[C@H](CO)[C@@H](O)[C@H](O)[C@H]1O` [PCM-0216173], the inhibition at 10 µM was found to be 0%.
On the same count and under the same terms, with `Nc1nc(N)nc(-c2cc(Cl)ccc2Cl)n1` [PCM-0086432] the figure was 4.3%.
Same read-out and setting: with `Cc1onc(-c2ccccc2Cl)c1C(=O)N[C@@H]1C(=O)N2[C@@H]1SC(C)(C)[C@@H]2C(=O)O` [PCM-0214695] the figure was -5.4%; with `COc1cc2c(c(OC)c1OC)-c1c(cc3c(c1OC)OCO3)CC(C)C(C)C2` (stereo not shown) [PCM-0214727], 11.7%; with `Cc1cc(=O)oc2cc(O)ccc12` [PCM-0011565], -2.3%.
On the same count and under the same terms, as for `C=C[C@@H]1C[C@]1(NC(=O)[C@@H]1C[C@@H](Oc2ncc(OC)c3ccc(Cl)cc23)CN1C(=O)[C@@H](NC(=O)OC(C)(C)C)C(C)(C)C)C(=O)NS(=O)(=O)C1CC1` [PCM-0215095], the figure is -4.7%; as for `CO[C@H]1C[C@H](O[C@H]2[C@H](C)O[C@@H](O[C@@H]3/C(C)=C/C[C@@H]4C[C@@H](C[C@]5(C=C[C@H](C)[C@@H](C6CCCCC6)O5)O4)OC(=O)[C@@H]4C=C(C)[C@@H](O)[C@H]5OC/C(=C\C=C\[C@@H]3C)[C@]54O)C[C@@H]2OC)O[C@@H](C)[C@@H]1O` [PCM-0215971], 44%.
Regarding `C[C@H](N=C(NC#N)Nc1cccc2ncccc12)c1ccccc1` [PCM-0216092], the inhibition at 10 µM was -13.1%.
For the compound `C=CCNC1=C2C[C@@H](C)C[C@H](OC)[C@H](O)[C@@H](C)/C=C(\C)[C@H](OC(N)=O)[C@@H](OC)/C=C\C=C(/C)C(=O)NC(=CC1=O)C2=O` [PCM-0094959], the inhibition at 10 µM was found to be 14%.
Regarding `COC(=O)[C@@H]1CC2=CC(=O)CC[C@]2(C)[C@@]23O[C@@H]2C[C@@]2(C)[C@@H](CC[C@@]24CCC(=O)O4)[C@H]13` [PCM-0215188], the inhibition at 10 µM is -18.7%.
The same measure, in the same setting: with `CC(=O)[C@@]1(O)CC[C@H]2[C@@H]3C[C@H](C)C4=CC(=O)CC[C@]4(C)[C@H]3CC[C@@]21C` [PCM-0214898] the figure was -7.8%.
As to `CCc1cccc(CC)c1NC(=O)N1Cc2[nH]nc(NC(=O)c3ccc(N4CCN(C)CC4)cc3)c2C1` [PCM-0095127], the inhibition at 10 µM was determined as 65.5%.
The same measure, in the same setting: as for `O=C(/C=C\n1cnc(-c2cc(C(F)(F)F)cc(C(F)(F)F)c2)n1)N1CC(F)(F)C1` [PCM-0095738], the figure is -16.2%; as for `O=c1[nH]c(=O)n([C@H]2C[C@H](O)[C@@H](CO)O2)cc1F` [PCM-0086169], -3.9%; as for `Cc1cnc(C(=O)O)c[n+]1[O-]` [PCM-0086103], 3.1%.
Same read-out and setting: with `Oc1cccc(O)c1O` [PCM-0214990] the figure was -12.4%; with `C=CCSC[C@H](N)C(=O)O` [PCM-0215956], 3.4%.
On to `C[C@]12CC[C@@H]3c4ccc(O)cc4C[C@@H](CCCCCCCCC[S+]([O-])CCCC(F)(F)C(F)(F)F)[C@H]3[C@@H]1CC[C@@H]2O` (stereo partly shown) [PCM-0214604], for which the inhibition at 10 µM is 15.6%.
The same measure, in the same setting: with `FC(F)(F)Oc1ccc2nc(-c3ccc(OCCOCCOc4ccc(-c5nc6ccc(OC(F)(F)F)cc6[nH]5)nc4)cn3)[nH]c2c1` [PCM-0215500] the figure was 32.4%; with `CCCCOc1c(C(=O)c2c(F)cc(C)cc2F)cnc2n[nH]cc12` [PCM-0095294], -2.1%.
Same read-out and setting: as for `COc1ccc2cc(C(=O)O)ccc2c1` [PCM-0216054], the figure is -9.3%; as for `C[C@@H]1O[C@@H](O[C@H]2[C@H](O[C@H]3CC[C@@]4(C)[C@@H](CC[C@]5(C)[C@@H]4CC=C4[C@@H]6CC(C)(C)CC[C@]6(C(=O)O[C@@H]6O[C@H](CO[C@@H]7O[C@H](CO)[C@@H](O)[C@H](O)[C@H]7O)[C@@H](O)[C@H](O)[C@H]6O)CC[C@]45C)[C@]3(C)CO)OC[C@H](O)[C@@H]2O)[C@H](O)[C@H](O[C@@H]2O[C@H](CO)[C@@H](O[C@@H]3O[C@H](CO)[C@@H](O)[C@H](O)[C@H]3O)[C@H](O)[C@H]2O)[C@H]1O` [PCM-0215007], -12.5%; as for `Cc1cc(Nc2ccc(NC(=O)c3ccc(Nc4ccnc5ccccc45)cc3)cc2)nc(N)n1` [PCM-0215241], 17%.
Same read-out and setting: with `Oc1ccc2c(c1)OC[C@]1(O)Cc3cc(O)c(O)cc3[C@H]21` [PCM-0216323] the figure was 0%.
As to `CCCc1cc(=O)[nH]c(=S)[nH]1` [PCM-0085981], the inhibition at 10 µM was 3.1%.
With `Cn1cc(CNCC2CCN(c3ncc(C(=O)NO)cn3)CC2)c2ccccc21` [PCM-0095073], the inhibition at 10 µM is -11.7%.
